This is an account of results in patent publication US9556145B2, “2-pyridyloxy-4-ester orexin receptor antagonists” (MERCK SHARP & DOHME CORP., priority 2012, dated 2017).

The target of one test is human orexin-2 receptor (Homo sapiens (Human), UniProt O43614). The test can be described thus: FLIPR Ca2+ Flux Assay, orexin-2 receptor. The class given is cell-based. Particulars: CHO cells expressing the receptor; agonist 70 pM Ala-6,12 orexin-A; read-out: hOX2R FLIPR IC50. As for the experimental part: The utility of the compounds in accordance with the present invention as orexin receptor OX1R and/or OX2R antagonists may be readily determined without undue experimentation by methodology well known in the art, including the “FLIPR Ca^2+ Flux Assay” (Okumura et al., Biochem. Biophys. Res. Comm. 280:976-981, 2001). In a typical experiment the OX1 and OX2 receptor antagonistic activity of the compounds of the present invention was determined in accordance with the following experimental method. For intracellular calcium measurements, Chinese hamster ovary (CHO) cells expressing the rat orexin-1 receptor or the human orexin-2 receptor, are grown in Iscove's modified DMEM containing 2 mM L-glutamine, […], 1% hypoxanthine-thymidine supplement, 100 U/ml penicillin, 100 µg/ml streptomycin and 10% heat-inactivated fetal calf serum (FCS). The cells are seeded at 20,000 cells/well into Becton-Dickinson black 384-well clear bottom sterile plates coated with poly-D-lysine. All reagents were from GIBCO-Invitrogen Corp. The seeded plates are incubated overnight at 37° C. and 5% CO2. Ala-6,12 human orexin-A as the agonist is prepared as a 1 mM stock solution in 1% bovine serum albumin (BSA) and diluted in assay buffer (HBSS containing 20 mM HEPES, 0.1% BSA and 2.5 mM probenecid, pH7.4) for use in the assay at a final concentration of 70 pM. Test compounds are prepared as 10 mM stock solution in DMSO, then diluted in 384-well plates, first in DMSO, then assay buffer. On the day of the assay, cells are washed 3 times with 100 μl assay buffer and then incubated for 60 min (37° C., 5% CO2) in 60 μl assay buffer containing 1 μM Fluo-4AM ester, 0.02% pluronic acid, and 1% BSA. The dye loading solution is then aspirated and cells are washed 3 times with 100 μl assay buffer. 30 μl of that same buffer is left in each well. Within the Fluorescent Imaging Plate Reader (FLIPR, Molecular Devices), test compounds are added to the plate in a volume of 25 μl, incubated for 5 min and finally 25 μl of agonist is added. Fluorescence is measured for each well at 1 second intervals for 5 minutes and the height of each fluorescence peak is compared to the height of the fluorescence peak induced by 70 pM Ala-6,12 orexin-A with buffer in place of antagonist. For each antagonist, IC50 value (the concentration of compound needed to inhibit 50% of the agonist response) is determined. Alternatively, compound potency can be assessed by a radioligand binding assay (described in Bergman et. al. Bioorg. Med. Chem. Lett. 2008, 18, 1425-1430) in which the inhibition constant (Ki) is determined in membranes prepared from CHO cells expressing either the OX1 or OX2 receptor. The intrinsic orexin receptor antagonist activity of a compound which may be used in the present invention may be determined by these assays.
A general note: A change in cytosolic calcium serves as a functional read-out for many receptors and channels.

For the next test, the target named is hOX1R (Homo sapiens, UniProt O43613). The test can be described thus: FLIPR Ca2+ Flux Assay, orexin-1 receptor. The class given is cell-based. Particulars: CHO cells expressing the receptor; agonist 70 pM Ala-6,12 orexin-A.

Chain of human orexin-2 receptor (O43614 whole entry): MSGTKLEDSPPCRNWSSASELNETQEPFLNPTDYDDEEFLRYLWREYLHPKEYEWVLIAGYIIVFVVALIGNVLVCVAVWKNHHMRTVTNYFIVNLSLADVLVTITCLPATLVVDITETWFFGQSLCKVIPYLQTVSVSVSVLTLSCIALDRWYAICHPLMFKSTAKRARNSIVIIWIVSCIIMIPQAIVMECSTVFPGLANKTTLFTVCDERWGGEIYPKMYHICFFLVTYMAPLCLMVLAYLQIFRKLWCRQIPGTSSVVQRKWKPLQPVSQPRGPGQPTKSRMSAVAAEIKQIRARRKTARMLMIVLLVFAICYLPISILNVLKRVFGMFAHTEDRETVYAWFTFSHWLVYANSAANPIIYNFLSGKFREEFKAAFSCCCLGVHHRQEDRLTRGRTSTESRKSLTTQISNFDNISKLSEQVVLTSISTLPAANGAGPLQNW

As a reminder, the IC50 is the concentration that inhibits the measured activity by half. As to `COC(=O)c1cc(O[C@@H]2CC[C@@H](C)N(C(=O)c3ccccc3-n3nccn3)C2)ncc1OC` [Example 10, Methyl 5-methoxy-2-{[(3R,6R)-6-methyl-1-{[2-(2H-1,2,3-triazol-2-yl)phenyl]carbonyl}piperidin-3-yl]oxy}pyridine-4-carboxylate], the IC50 at human orexin-2 receptor came to 96 nM; on hOX1R it was 597 nM.
On the same counts, the results for `COC(=O)c1cc(C)nc(O[C@@H]2CC[C@@H](C)N(C(=O)c3ccccc3-n3nccn3)C2)c1` [Example 7, methyl 2-methyl-6-{[(3R,6R)-6-methyl-1-{[2-(2H-1,2,3-triazol-2-yl)phenyl]carbonyl}piperidin-3-yl]oxy}pyridine-4-carboxylate] are 82.6 nM and 1470 nM.
Turning to `COC(=O)c1ccnc(O[C@@H]2CC[C@@H](C)N(C(=O)c3ccccc3-n3nccn3)C2)c1C(=O)OC` [Example 6, dimethyl 2-{[(3R,6R)-6-methyl-1-{[2-(2H-1,2,3-triazol-2-yl)phenyl]-carbonyl}-piperidin-3-yl]oxy}pyridine-3,4-dicarboxylate], the IC50 is 30.8 nM on human orexin-2 receptor and 526 nM on hOX1R.
Consider `COC(=O)c1cc(O[C@@H]2CC[C@@H](C)N(C(=O)c3ccccc3-n3nccn3)C2)ncc1C` [Example 11, Methyl 5-methyl-2-{[(3R,6R)-6-methyl-1-{[2-(2H-1,2,3-triazol-2-yl)phenyl]carbonyl}piperidin-3-yl]oxy}pyridine-4-carboxylate], for which the IC50 was 11 nM on human orexin-2 receptor and 31 nM at hOX1R.
Regarding `COC(=O)c1ccnc(O[C@@H]2CC[C@@H](C)N(C(=O)c3ccccc3-n3nccn3)C2)c1` [Example 1, Methyl 2-{[(3R,6R)-6-methyl-1-{[2-(2H-1,2,3-triazol-2-yl)phenyl]carbonyl}piperidin-3-yl]oxy}pyridine-4-carboxylate], the results for the IC50 on human orexin-2 receptor and on hOX1R were 26 nM and 1400 nM, respectively.
As to `COC(=O)c1cc(O[C@@H]2CC[C@@H](C)N(C(=O)c3ccccc3-n3nccn3)C2)ncc1Br` [Example 4, methyl 5-bromo-2-{[(3R,6R)-6-methyl-1-{[2-(2H-1,2,3-triazol-2-yl)phenyl]carbon-yl}piperidin-3-yl]oxy}pyridine-4-carboxylate], the IC50 on human orexin-2 receptor turned out to be 60 nM; at hOX1R, 28.9 nM.
The like results for `COC(=O)c1ccnc(O[C@@H]2CC[C@@H](C)N(C(=O)c3ccccc3-n3nccn3)C2)c1F` [Example 8, methyl 3-fluoro-2-{[(3R,6R)-6-methyl-1-{[2-(2H-1,2,3-triazol-2-yl)phenyl]carbonyl}piperidin-3-yl]oxy}pyridine-4-carboxylate] were, in that order, 24.9 nM and 1690 nM.
With `COC(=O)c1ccnc(O[C@@H]2CC[C@@H](C)N(C(=O)c3ccc(OC)nc3-n3nccn3)C2)c1` [Example 9, methyl 2-{[(3R,6R)-1-{[6-methoxy-2-(2H-1,2,3-triazol-2-yl)pyridin-3-yl]carbonyl}-6-methylpiperidin-3-yl]oxy}pyridine-4-carboxylate], the IC50 at human orexin-2 receptor was 406 nM; at hOX1R, 10000 nM.
On the same counts, the results for `COC(=O)c1ccnc(O[C@@H]2CC[C@@H](C)N(C(=O)c3ccc(OC)nc3-c3ncccn3)C2)c1` [Example 12, Methyl 2-({(3R,6R)-1-[(6-methoxy-2-pyrimidin-2-ylpyridin-3-yl)carbonyl]-6-methylpiperidin-3-yl}oxy)pyridine-4-carboxylate] are 2110 nM and 10000 nM.
`COC(=O)c1ccnc(O[C@@H]2CC[C@@H](C)N(C(=O)c3ccccc3-n3nccn3)C2)c1Cl` [Example 5, Methyl 3-chloro-2-{[(3R,6R)-6-methyl-1-{[2-(2H-1,2,3-triazol-2-yl)phenyl]carbonyl}piperidin-3-yl]oxy}pyridine-4-carboxylate]: the IC50 at human orexin-2 receptor was 11 nM; at hOX1R, 953 nM.
`COC(=O)c1cc(O[C@@H]2CC[C@@H](C)N(C(=O)c3ccccc3-n3nccn3)C2)ncc1C(F)(F)F` [Example 3, methyl 2-{[(3R,6R)-6-methyl-1-{[2-(2H-1,2,3-triazol-2-yl)phenyl]-carbonyl}piperidin-3-yl]oxy}-5-(trifluoro-methyl)pyridine-4-carboxylate]: the IC50 on human orexin-2 receptor was found to be 57 nM; on hOX1R it was 28 nM.
